Consider five molecules from US20100203044A1, “DR6 ANTAGONISTS AND USES THEREOF IN TREATING NEUROLOGICAL DISORDERS” (priority 2006, published 2010).

One test relates to commissural neurons. As to the kind of experiment: dorsal spinal cord (commissural explant) survival assay. The format is cell-based, rat. The conditions noted are these: for commissural axon degeneration: 48 hours, hDR6-ECD-Fc at 30 μg/ml and 10 μg/ml. On the procedure: To examine functional roles of DR6 in axonal degeneration and programmed cell death of commissural neurons, an RNAi-based dorsal spinal cord survival assay (Kennedy et al., Cell, 78:425-435 (1994); Wang et al., supra, 1999) was conducted (see FIG. 3). E13 rat or E11.5 mouse embryos were placed in L15 medium (Gibco) and siRNAs (IDT) together with green fluorescent protein (“GFP”)-encoding plasmids were injected into the neural tubes. The siRNAs and plasmids were then delivered to dorsal progenitor cells by electroporation. Dorsal spinal cord explants were dissected out, embedded into a 3D-collagen gel matrix, and cultured in Opti-MEM/F12 medium (Invitrogen) with recombinant netrin-1 ([…]) and 5% horse serum (Sigma) at 37° C. in a 5% CO2 environment. Within 16 hours in response to chemo-attractant netrin-1, commissural axons grow out of the explant into the collagen matrix gel (Kennedy et al., supra, 1994). Commissural axons are visualized by GFP fluorescence by observation using an inverted microscope.
Materials and methods used to generate the data shown in this figure are as follows. To investigate physiological roles of DR6 receptor in axonal degeneration and programmed cell death of commissural neurons, a dorsal spinal cord survival assay according to protocols known in the art (Kennedy et al., Cell, 78:425-435 (1994); Wang et al., Nature, 401:765-769 (1999)) was performed (with data shown in FIG. 4B). E13 rat embryos were placed in L15 medium (Gibco) and injected into their neural tubes with the following siRNA constructs (FIG. 4B): […]
A dorsal spinal cord survival assay (as described in Example 2 above) was conducted using anti-DR6 antibodies. Microscopic observation (using green fluorescence channel for GFP) was employed to visualize commissural axons. […] To visualize GFP-expressing commissural axons, pictures were taken on the Axiovert 200 Zeiss inverted microscope (in green fluorescence channel for GFP) using AxioVision40 Release 4.5.0.0 SP1 (March 2006) computer software from Carl Zeiss Imaging Solutions. […]

Test [1] relates to DR6-AP binding sites on BAX null sensory axons. As to the kind of experiment: in situ DR6-AP sensory axon binding assay after NGF deprivation. The format is cell-based, mouse. The conditions noted are these: BAX null sensory axons E12.5; BACE inhibitor at 1 uM. On the procedure: For the in situ DR6-AP sensory axon binding assay, either wild-type or Bax null sensory explants were cultured in Neurobasal medium/B27 (Invitrogen) as outlined in the Examples 7-8 above, with 50 ng/ml NGF (Roche). Two days post-plating, DRG explants were either left untreated or deprived from NGF as described above in Examples 7-8. Bax inhibitory peptide was added where indicated on FIG. 12B (10 uM, Bax-V5, Tocris). Twelve hours post-NGF deprivation, DRG explants were washed twice with the binding buffer (HBSS, Gibco Cat. No. 14175-095, with 0.2% BSA, 0.1% NaN3, 5 mM CaCl2, 1 mM MgCl2, 20 mM HEPES, pH=7.0). AP binding assay was then carried out by making a 1:1 mixture of DR6-AP conditioned medium and the binding buffer (or control AP conditioned medium and the binding buffer), which was applied directly to DRG explants in 8-well culture slides (Becton, Dickinson and Company) and incubated for 90 minutes at room temperature.
Following the incubation, unbound DR6-AP proteins were washed away by rinsing DRG explants five times with the binding buffer. DRG explants were then fixed with 3.7% formaldehyde diluted in PBS, for 12 minutes at room temperature. The remaining formaldehyde was removed by rinsing DRG explants 3 times with HBS buffer (20 mM HEPES pH=7.0, 150 mM NaCl). Endogenous AP activity was blocked by heat inactivation at 65° C. in HBS buffer for 30 minutes. […]

A further test concerns sensory neurons. As to the kind of experiment: NGF deprivation assay in Campenot Chambers, local sensory axonal degeneration. The format is cell-based, mouse. The conditions noted are these: for sensory axonal degeneration induced by NGF withdrawal: 30 μg/ml in axonal compartments with anti-NGF, 0, 6 and 24 hours. How it is done: Materials and methods used to generate the data shown in this figure are as follows. To examine whether ligand is required for DR6 function in sensory axonal degeneration, a compartmented culture analysis of sensory axon growth and degeneration was carried out as follows. A Campenot nerve cell chamber system was used to isolate neuronal processes (axons) from the cell bodies in different compartments (separate fluid environments), analogous to neuronal cell bodies in one location of the nervous system projecting their axons to a distal target in another location. The assay was carried out as originally described by Campenot (Campenot et al., J. Neurosci. 11(4): 1126-39 (1991)) with the following modifications. Briefly, 35-mm tissue culture dishes were coated with PDL/Laminin and scratched with a pin rake (Tyler Research) to generate tracks, as illustrated for example in FIGS. 1 and 4 of Campenot et al., supra.
A drop of culture medium (Neurobasal medium with B27 supplement, 25 ng/ml of NGF, and 4 g/L of methylcellulose) was placed on the scratched substratum. A Teflon divider (Tyler Research) was seated on silicone grease and a dab of silicone grease was placed at the mouth of the center slot. Dissociated sensory neurons derived from E12.5 mouse DRGs were suspended in methylcellulose-thickened medium and loaded into a disposable sterile syringe fitted with a 22-gauge needle. This cell suspension was injected into the center slots of each compartmented dish under the dissecting microscope. The neurons were allowed to settle overnight. […]
To trigger local axonal degeneration, NGF-containing medium from axonal compartments was substituted with neurobasal medium with an NGF blocking antibody (anti-NGF, Genentech, Inc., 20 ug/ml). Zero hours, 6 hours, or 24 to 48 hours following NGF deprivation, sensory neurons were fixed in 4% PFA for 30 minutes at room temperature and processed for immunofluorescence staining with axonal marker TUJ-1 (Covance, 1:500 dilution) to visualize degenerating axons by fluorescence microscopy (FIG. 11B) (as above described in Example 7). […]
To examine whether ligand is required for DR6 function in axonal degeneration program triggered by NGF withdrawal, 30 μg/ml of hDR6-ECD-Fc immunoadhesin protein (described in EXAMPLE 3 above) or 30 μg/ml of a control Fc (Genentech, Inc.) was included together with anti-NGF treatment in axonal compartments of Campenot Chambers. Zero to 24 hours after NGF deprivation, axons in Campenot Chambers were fixed with 4% PFA/PBS and visualized by immuno-fluorescence staining with TUJ-1 (1:500, Covance)/secondary antibody conjugated to a fluorescence group Alexa 488 (Molecular Probes, BD) (FIG. 11B). […]

The conditions of test [2]: cited from earlier work.

“Also recorded” adds a separate entry of the source. Residues, ends and D or L forms follow the SMILES beside them. *: point of attachment. Cbz = O=C(OCc1ccccc1)*; CH2F = FC*

Take “(L)-HIV-TAT48-57-PP-JBD20 [L-JNK-I, reference compound]”: the “axonal degeneration of commissural neurons” value with commissural neurons (JNK signaling blocked by peptide inhibitor at 1 μM) was “partially blocked axonal degeneration”.

With OM99-2 [reference compound], the “disappearance of DR6-AP binding sites from sensory axons following NGF withdrawal” value in test [1] was “can block the disappearance of DR6-AP binding sites”. Further, the “sensory axonal degeneration in the absence of NGF” value in the test with sensory neurons (BACE inhibitor at 1 uM) is “blocked”.

Turning to “hDR6-ECD-Fc: human DR6 extracellular domain sequence fused with Fc, SEQ ID NO: 4”, the “sensory axonal degeneration induced by NGF withdrawal” value was “delayed sensory axonal degeneration; also recorded: delayed the onset of axonal degeneration” with sensory neurons and “can be delayed” with sensory neurons (listed as DR6-Fc). Besides, the commissural axon degeneration result in the test on commissural neurons is given as “delayed”; with commissural neurons (listed as DR6-Fc), “can be delayed”.

Consider `CC12CC3CC(C)(C1)CC(N)(C3)C2` [Memantine], for which the “symptoms across SIB, ADCS-ADL19, CIBIC-Plus and NPI outcome measures” value in test [2] (human, in vivo) was “improvement and stabilization of symptoms”. In test [2] (patients taking stable doses of Donepezil), the “outcome measures SIB, ADCS-ADL19, CIBIC-Plus, NPI, BGP versus placebo” value is reported as “benefit over placebo”.

Take `CC[C@H](C)[C@H](NC(=O)OCc1ccccc1)C(=O)N[C@@H](CCC(=O)OC)C(=O)N[C@H](C(=O)N[C@@H](CC(=O)OC)C(=O)CF)[C@@H](C)O` [caspase-8 inhibitor, Z-IETD-FMK, reference compound] (Cbz-IE(OMe)TD(OMe)-CH2F): the “sensory axonal degeneration after NGF deprivation” value with sensory neurons (neurons cultured 5 days, then 24 hours, SP 600125 1 uM, Z-IETD-FMK 10 uM, Z-DEVD-FMK 10 uM) was “delayed”.
